Source: patent US9169237B1, “Antiprotozoal amidine compounds” (Medi Synergics, LLC, priority 2014, dated 2015)

Tested on: T. brucei brucei
Assay: T. brucei brucei growth inhibition assay
Assay type: cell-based, Trypanosoma brucei brucei clone 427-221a (bloodstream forms)
Conditions: Trypanosoma brucei; bloodstream forms, T. brucei brucei clone 427-221a; 40 hours at 37° C.; 0.5% DMSO; ATP-bioluminescence; read-out: IC50 (μM) (95% Confidence Intervals)
Procedure: The growth inhibition assay for T. brucei brucei was conducted as described previously by Z. B. Mackey et al (Kenny K. H. Ang, Joseline Ratnam, Jiri Gut, Jennifer Legac, Elizabeth Hansell, Zachary B. Mackey, Katarzyna M. Skrzypczynska, Anjan Debnath, Juan C. Engel, Philip J. Rosenthal, James H. McKerrow, Michelle R. Arkin, Adam R. Renslo (2011) “Mining a Cathepsin Inhibitor Library for New Antiparasitic Drug Leads”, PLoS Neglected Tropical Diseases, 5(5):e1023). Bloodstream forms of the monomorphic T. brucei brucei clone 427-221a were grown in complete HMI-9 medium containing 10% FBS, 10% Serum Plus medium (Sigma Inc., St. Louis, Mo., USA), 50 U/mL penicillin and […] streptomycin (Invitrogen) at 37° C. under a humidified atmosphere and 5% CO2. Inhibitor stocks were prepared in 100% DMSO and screened at […] for percent inhibition values or serially diluted from […] in 10% DMSO for […] determinations. […] of each dilution was added to […] of diluted parasites ([…]) in sterile Greiner 96-well flat white opaque culture plates such that the final DMSO concentration was 0.5%. The 0% inhibition control wells contained 0.5% DMSO while 100% inhibition control wells contained […] thimerosal (Sigma). After compound addition, plates were incubated for 40 hours at 37° C. At the end of the incubation period, […] of CellTiter-GIo™ reagent (Promega Inc., Madison, Wis., USA) was added to each well and plates were placed on an orbital shaker at room temperature for 2 min to induce lysis. After an additional 10 min of incubation without shaking to stabilize the signal, the ATP-bioluminescence of each well was determined using an Analyst HT plate reader (Molecular Devices, Sunnyvale, Calif., USA). Raw values were converted to log 10 and percentage inhibition calculated relative to the controls. IC50 curve fittings were performed with Prism 4 software as above. Pentamidine was used as a comparator in the assay.

| Structure (SMILES) | IC50 |
| --- | --- |
| CC(=N)N(C)CCCC1(c2ccc(F)cc2)OCc2cc(C#N)ccc21 (stereo not drawn) [Example 1, N-{3-[5-cyano-1-(4-fluorophenyl)-1,3-dihydro-2-benzofuran-1-yl]propyl}-N-methyl-ethanimidamide] | 10 µM |
| CN(CCCC1(c2ccc(F)cc2)OCc2cc(C#N)ccc21)C1=NCCCC1 (stereo not drawn) [Example 3, 1-(4-fluorophenyl)-1-{3-[methyl(3,4,5,6-tetrahydropyridin-2-yl)amino]propyl}-1,3-dihydro-2-benzo-furan-5-carbonitrile] | 20 µM |
| CN(CCCC1(c2ccc(F)cc2)OCc2cc(C#N)ccc21)C(=N)c1ccccc1 (stereo not drawn) [Example 2, N-{3-[5-cyano-1-(4-fluorophenyl)-1,3-dihydro-2-benzofuran-1-yl]propyl}-N-methyl-phenylmethanimidamide] | 1.1 µM |
